Patent US9694006B2, “Use of pyrroloquinoline compounds to kill clinically latent microorganisms” (HELPERBY THERAPEUTICS LIMITED, priority 2005, dated 2017)

How the values were obtained:
[1] = system: Staph. aureus stationary phase bacteria; assay: Bactericidal activity against stationary-phase cultures (CFU counts), Staph. aureus; format: cell-based, Staphylococcus aureus; conditions: 5 μg/mL of test compound
[2] = system: E. coli persister bacteria; assay: Bactericidal activity against persistent bacteria (CFU counts), E. coli; conditions: 25 μg/mL of test compound

`COc1cc(OC)c2nc(C)c3c(c2c1)N(c1cccc(Oc2ccccc2)c1)CC3.O=C(O)C(F)(F)F` [Example 1(a), 6,8-Dimethoxy-4-methyl-1-(3-phenoxyphenyl)-2,3-dihydro-1H-pyrrolo[3,2-c]quinoline trifluoroacetate] showed a log kill [1] of 3.55.

Molecule `Cc1nc2ccc(Oc3ccccc3)cc2c2c1CCN2Cc1ccccc1` [Example 1(h), 1-Benzyl-4-methyl-8-phenoxy-2,3-dihydro-1H-pyrrolo[3,2-c]quinoline] has a log kill [2] of 3.83.
